# Experimental data: patent US20110224210A1, “NOVEL BIS-AMIDES AS ANTI-MALARIAL AGENTS” (priority 2008, published 2011)
# Test system: P. falciparum K1 (strain resistant to chloroquine and pyrimethamine), erythrocytic stages
# Experiment: Plasmodium falciparum in vitro assay, [3H] hypoxanthine incorporation
# Type: cell-based
# Conditions: Plasmodium falciparum, K1, P. falciparum strain K1; [3H] hypoxanthine incorporation; read-out: IC50 (nM) on K1
# Method in brief: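 K1 strain parasites grown in human red cells, 2.5% haematocrit, 0.3% parasitaemia, 37 °C, 4% CO2/3% O2; compounds in seven serial doubling dilutions.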
row,SMILES,IC50 [nM]
1,"CN(CCO)C(=O)[C@H](Cc1ccccc1)N(Cc1ccc(N2CCOCC2)cc1)C(=O)C=Cc1ccc(C(F)(F)F)cc1 [Example 175, (S)-N-{1-[(2-Hydroxy-ethyl)-methyl-carbamoyl]-2-phenyl-ethyl}-N-(4-morpholin-4-yl-benzyl)-3-(4-trifluoromethyl-phenyl)-acrylamide]",88
2,"Cc1noc(C)c1C=CC(=O)N(Cc1ccc(N2CCOCC2)cc1)[C@@H](Cc1ccccc1)C(=O)N1CCC(N(C)C)CC1 [Example 3, (S)-N-[1-Benzyl-2-(4-dimethylamino-piperidin-1-yl)-2-oxo-ethyl]-3-(3,5-dimethyl-isoxazol-4-yl)-N-(4-morpholin-4-yl-benzyl)-acrylamide]",436
3,CN(C)C1CCN(C(=O)C(Cc2ccnn2C)N(Cc2ccc(-c3ccncc3)cc2)C(=O)C=Cc2ccc(C(F)(F)F)cc2)CC1 (racemic) [Example 141],339
4,O=C(NCCN1CCCCC1)[C@H](Cc1ccccc1)N(Cc1ccc(-c2ccccn2)cc1)C(=O)C=Cc1ccc(C(F)(F)F)cc1 [Example 153],268
5,COCCN(C)C(=O)C(Cc1ncccn1)N(Cc1ccc(-c2ccncc2)cc1)C(=O)C=Cc1ccc(C(F)(F)F)cc1 (racemic) [Example 170],192
6,"CN(C)C1CCN(C(=O)[C@H](Cc2ccccc2)N(Cc2ccc(-c3cncnc3)cc2)C(=O)C=Cc2ccc(C(F)(F)F)cn2)CC1 [Example 42, (S)-N-[1-Benzyl-2-(4-dimethylamino-piperidin-1-yl)-2-oxo-ethyl]-N-(4-pyrimidin-5-yl-benzyl)-3-(5-trifluoromethyl-pyridin-2-yl)-acrylamide]",104
7,COCCN(C)C(=O)C(CN1CCOC1=O)N(Cc1ccc(-c2ccncc2)cc1)C(=O)C=Cc1ccc(C(F)(F)F)cc1 (racemic) [Example 284],362
8,"COc1cc(CN(C)CCN(C)C(=O)[C@H](Cc2ccccc2)N(Cc2ccc(N3CCN(C(C)=O)CC3)cc2)C(=O)C=Cc2ccc(C(F)(F)F)cc2)cc(OC)c1 [Example 236, (S)-N-[4-(4-Acetyl-piperazin-1-yl)-benzyl]-N-[1-({2-[(3,5-dimethoxy-benzyl)-methyl-amino]-ethyl}-methyl-carbamoyl)-2-phenyl-ethyl]-3-(4-trifluoromethyl-phenyl)-acrylamide]",68
9,"CC(=O)N1CCN(c2ccc(CN(C(=O)C=Cc3ccc(C(F)(F)F)cc3)[C@@H](Cc3ccccc3)C(=O)N(C)CCOCc3ccc(C)cc3C)cc2)CC1 [Example 183, (S)-N-[4-(4-Acetyl-piperazin-1-yl)-benzyl]-N-(1-{[2-(2,4-dimethyl-benzyloxy)-ethyl]-methyl-carbamoyl}-2-phenyl-ethyl)-3-(4-trifluoromethyl-phenyl)-acrylamide, formic acid]",60
10,CC(=O)N(c1ccccc1)c1ccc(CN(C)C(=O)[C@H](Cc2ccccc2)N(Cc2ccc(N3CCOCC3)cc2)C(=O)C=Cc2ccc(C(F)(F)F)nc2)cc1 [Example 276],65
11,"COCCN(C)C(=O)[C@H](Cc1ccccc1)N(Cc1ccc(N2CCN(C(C)=O)CC2)cc1)C(=O)C=Cc1ccc(C)nc1 [Example 112, (S)-N-[4-(4-Acetyl-piperazin-1-yl)-benzyl]-N-{1-[(2-methoxy-ethyl)-methyl-carbamoyl]-2-phenyl-ethyl}-3-(6-methyl-pyridin-3-yl)-acrylamide]",153
12,"COCCN(C)C(=O)[C@H](Cc1ccccc1)N(Cc1ccc(-c2cncnc2)cc1)C(=O)C=Cc1c(C)noc1C [Example 124, (S)-3-(3,5-Dimethyl-isoxazol-4-yl)-N-{1-[(2-methoxy-ethyl)-methyl-carbamoyl]-2-phenyl-ethyl}-N-(4-pyrimidin-5-yl-benzyl)-acrylamide]",110
13,"COCCN(C)C(=O)[C@H](Cc1ccccc1)N(Cc1ccc(N2CCOCC2)cc1)C(=O)C=Cc1sc(C)nc1C [Example 63, (S)-3-(2,4-Dimethyl-thiazol-5-yl)-N-{1-[(2-methoxy-ethyl)-methyl-carbamoyl]-2-phenyl-ethyl}-N-(4-morpholin-4-yl-benzyl)-acrylamide]",87
14,"COc1ncc(C=CC(=O)N(Cc2ccc(-c3ccncc3)cc2)[C@@H](Cc2ccccc2)C(=O)N2CCC(N(C)C)CC2)cn1 [Example 32, (S)-N-[1-Benzyl-2-(4-dimethylamino-piperidin-1-yl)-2-oxo-ethyl]-3-(2-methoxy-pyrimidin-5-yl)-N-(4-pyridin-4-yl-benzyl)-acrylamide]",298

# Stronger by IC50, values ahead:
row,IC50 [nM],SMILES
1,55,"CC(=O)N1CCN(c2ccc(CN(C(=O)C=Cc3ccc(C(F)(F)F)cc3)[C@@H](Cc3ccccc3)C(=O)N(C)CCN(C)Cc3ccc(N(C)CCO)cc3)cc2)CC1 [Example 237, (S)-N-[4-(4-Acetyl-piperazin-1-yl)-benzyl]-N-(1-{[2-({4-[(2-hydroxy-ethyl)-methyl-amino]-benzyl}-methyl-amino)-ethyl]-methyl-carbamoyl}-2-phenyl-ethyl)-3-(4-trifluoromethyl-phenyl)-acrylamide]"
2,40,"CC(=O)N1CCN(c2ccc(CN(C(=O)C=Cc3ccc(C(F)(F)F)cc3)[C@@H](Cc3ccccc3)C(=O)N(C)CCOCC3CC3)cc2)CC1 [Example 207, (S)-N-[4-(4-Acetyl-piperazin-1-yl)-benzyl]-N-{1-[(2-cyclopropylmethoxy-ethyl)-methyl-carbamoyl]-2-phenyl-ethyl}-3-(4-trifluoromethyl-phenyl)-acrylamide]"
3,44,"COCCN(C)C(=O)[C@H](Cc1ccccc1)N(Cc1ccc(N2CCN(C(C)=O)CC2)cc1)C(=O)C=Cc1c(C)nn(C)c1C [Example 105, (S)-N-[4-(4-Acetyl-piperazin-1-yl)-benzyl]-N-{1-[(2-methoxy-ethyl)-methyl-carbamoyl]-2-phenyl-ethyl}-3-(1,3,5-trimethyl-1H-pyrazol-4-yl)-acrylamide]"
4,23,"COCCN(C)C(=O)[C@H](Cc1ccccc1)N(Cc1ccc(-c2ccccn2)cc1)C(=O)C=Cc1sc(C)nc1C [Example 77, (S)-3-(2,4-Dimethyl-thiazol-5-yl)-N-{1-[(2-methoxy-ethyl)-methyl-carbamoyl]-2-phenyl-ethyl}-N-(4-pyridin-2-yl-benzyl)-acrylamide]"
5,19,"CC(=O)N1CCN(c2ccc(CN(C(=O)C=Cc3ccc(C(F)(F)F)cc3)[C@@H](Cc3ccccc3)C(=O)N(C)CCN(C)Cc3ccc(OC(C)C)cc3)cc2)CC1 [Example 244, (S)-N-[4-(4-Acetyl-piperazin-1-yl)-benzyl]-N-[1-({2-[(4-isopropoxy-benzyl)-methyl-amino]-ethyl}-methyl-carbamoyl)-2-phenyl-ethyl]-3-(4-trifluoromethyl-phenyl)-acrylamide]"
6,14,"CN(CCN(C)C(=O)[C@H](Cc1ccccc1)N(Cc1ccc(N2CCOCC2)cc1)C(=O)C=Cc1ccc(C(F)(F)F)cc1)Cc1cccc(OCCO)c1 [Example 260, (S)-N-{1-[(2-{[3-(2-Hydroxy-ethoxy)-benzyl]-methyl-amino}-ethyl)-methyl-carbamoyl]-2-phenyl-ethyl}-N-(4-morpholin-4-yl-benzyl)-3-(4-trifluoromethyl-phenyl)-acrylamide]"
7,58,"CC(=O)N1CCN(c2ccc(CN(C(=O)C=Cc3ccc(C(F)(F)F)cc3)[C@@H](Cc3ccccc3)C(=O)N(C)CCOCc3cccc(OC(F)(F)F)c3)cc2)CC1 [Example 186, (S)-N-[4-(4-Acetyl-piperazin-1-yl)-benzyl]-N-(1-{methyl-[2-(3-trifluoromethoxy-benzyloxy)-ethyl]-carbamoyl}-2-phenyl-ethyl)-3-(4-trifluoromethyl-phenyl)-acrylamide, formic acid]"
8,11,"COCCN(C)C(=O)[C@H](Cc1ccccc1)N(Cc1ccc(-c2ccccn2)cc1)C(=O)C=Cc1c(C)nn(C)c1C [Example 75, (S)-N-{1-[(2-Methoxy-ethyl)-methyl-carbamoyl]-2-phenyl-ethyl}-N-(4-pyridin-2-yl-benzyl)-3-(1,3,5-trimethyl-1H-pyrazol-4-yl)-acrylamide]"
9,21,"COCCN(C)C(=O)[C@H](Cc1ccccc1)N(Cc1ccc(-c2cncnc2)cc1)C(=O)C=Cc1ccc(Cl)cn1 [Example 127, (S)-3-(5-Chloro-pyridin-2-yl)-N-{1-[(2-methoxy-ethyl)-methyl-carbamoyl]-2-phenyl-ethyl}-N-(4-pyrimidin-5-yl-benzyl)-acrylamide]"
10,10,"CC(=O)N1CCN(c2ccc(CN(C(=O)C=Cc3ccc(C(F)(F)F)cc3)[C@@H](Cc3ccccc3)C(=O)N(C)CCOCc3ccccc3)cc2)CC1 [Example 181, (S)-N-[4-(4-Acetyl-piperazin-1-yl)-benzyl]-N-{1-[(2-benzyloxy-ethyl)-methyl-carbamoyl]-2-phenyl-ethyl}-3-(4-trifluoromethyl-phenyl)-acrylamide]"
11,24,"COCCN(C)C(=O)[C@H](Cc1ccccc1)N(Cc1ccc(N2CCOCC2)nc1)C(=O)C=Cc1ccc(C)cc1 [Example 158, (S)-N-{1-[(2-Methoxy-ethyl)-methyl-carbamoyl]-2-phenyl-ethyl}-N-(6-morpholin-4-yl-pyridin-3-ylmethyl)-3-p-tolyl-acrylamide]"
12,47,COCCNc1ccc(CN(C)C(=O)[C@H](Cc2ccccc2)N(Cc2ccc(N3CCOCC3)cc2)C(=O)C=Cc2ccc(C(F)(F)F)nc2)cc1 [Example 277]
13,25,"CN(CCN(C)C(=O)[C@H](Cc1ccccc1)N(Cc1ccc(N2CCOCC2)cc1)C(=O)C=Cc1ccc(C(F)(F)F)cc1)Cc1ccncc1 [Example 270, (S)-N-(1-{Methyl-[2-(methyl-pyridin-4-ylmethyl-amino)-ethyl]-carbamoyl}-2-phenyl-ethyl)-N-(4-morpholin-4-yl-benzyl)-3-(4-trifluoromethyl-phenyl)-acrylamide]"
14,34,"COc1cc(COCCN(C)C(=O)[C@H](Cc2ccccc2)N(Cc2ccc(N3CCOCC3)cc2)C(=O)C=Cc2ccc(C(F)(F)F)cc2)cc(OC)c1 [Example 199, (S)-N-(1-{[2-(3,5-Dimethoxy-benzyloxy)-ethyl]-methyl-carbamoyl}-2-phenyl-ethyl)-N-(4-morpholin-4-yl-benzyl)-3-(4-trifluoromethyl-phenyl)-acrylamide]"
